In one series the target is DHODH enzyme (Homo sapiens, UniProt Q02127). The series is described as follows: DHODH enzyme inhibitory activity in vitro (resazurin fluorescence). It is filed as biochemical. The settings on record: 5 nM DHODH, 15 μM L-DHO, 80 μM Resazurin. From the text:
The DHODH inhibitory activity of the compounds was detected by the following experimental method, and the experimental results are as shown in Table 1.
DHODH uses flavin mononucleotide FMN to catalyze the oxidation of dihydrooratic acid DHO to produce oratic acid, while the re-oxidation of FMN requires the participation of coenzyme CoQ. In the experiment of detecting the DHODH enzyme activity, CoQ was replaced by Resazurin dye as the final electron acceptor in the enzyme activity reaction. Resazurin solution is blue, and the resorufin generated after reduction has red fluorescence, and the fluorescence signal can be detected under the 535 nm of excitation wavelength and the 590 nm of emission wavelength. The components of the reaction buffer used in the experiment were 100 mM Hepes pH 7.0, 150 mM NaCl, 0.3% CHAPS, 0.5 mg/mL BSA, 0.1 μM FMN and 1% DMSO. The final concentration of DHODH enzyme in the reaction system was 5 nM, and the final concentration of substrate L-DHO was 15 μM, the final concentration of indicator Resazurin was 80 μM. The components of the reaction stop buffer were 100 mM Hepes pH 7.0 and 5 mM Orotate. The specific method was as follows: 2-fold final concentration of the DHODH enzyme solution was mixed with the compound, incubated at room temperature for 20 min, 2-fold final concentration of the substrate mixture solution of L-DHO and resazurin was added and reacted, incubated at room temperature away from light for 45 min. Then the reaction was stopped by adding 2-fold final concentration of the reaction stop buffer to the reaction system, and incubated at room temperature for 10 min, the fluorescence signal of the reaction system was detected with EnVision under the condition of Ex/Em=535/590 nm.
(Alamar Blue is a resazurin reagent that responds to reducing activity.)

The test system of series [1] is influenza virus A/Weiss/43 (H1N1). As to the kind of experiment: Influenza virus cytopathic effect (CPE) experiment in MDCK cells. The class given is cell-based. Conditions: unidentified influenza virus, H1N1, 120 h, 5 days incubation, CCK8.
Series [2] relates to human peripheral blood mononuclear cells. The series is described as follows: Proliferation inhibition of peripheral blood mononuclear cells (flow cytometry). The class given is cell-based. The settings on record: PBMC, PHA-M 5 μg/mL stimulation, 48 hours. As for the experimental part:
Flow cytometry was used to detect cell proliferation of human peripheral blood mononuclear cells.
• Cell complete medium: 445 mL of RPMI1640 cell culture+50 mL of fetal bovine serum+5 mL of double antibody • Buffer 1: 9.9 mL of phosphate buffer+0.1 mL of 10% bovine serum protein • Buffer 2: 10 mL of fetal bovine serum+490 mL of phosphate buffer 3.2 Cell Thawing • 3.2.1 20 mL of cell complete medium was added to a 50 mL of centrifuge tube and pre-heated in a 37° C. water bath for 5 minutes; • 3.2.2 the cell cryotubes were removed from the liquid nitrogen storage tank and placed on dry ice for 5-10 minutes to allow the liquid nitrogen to evaporate fully; • 3.2.3 the cell cryotubes were clamped with forceps and placed in the water bath, and shaken gently to thaw the frozen cells quickly; • 3.2.4 the thawed cells were transferred to the pre-heated cell complete medium with a pipette, centrifuged at 350 g for 5 min, then the supernatant was discarded, and the cells was resuspended by adding 10 mL of phosphate buffer; • 3.2.5 counting by cell counter, and cell viability and cell count were recorded. 3.3 Cell Labeling • 3.3.1 Cell proliferation labeling solution (CellTrace™ Violet, 1:1000 dilution) was prepared • 3.3.2 the above mixture was centrifuged at 350 g for 5 minutes, and the supernatant was discarded, then the cells (20×10^6/mL) were resuspended by adding Buffer 1, and the resuspended cells were gently blown by pipette, and an equal volume of cell proliferation labeling solution (prepared in 3.3.1) was added, and gently blown well by pipette; • 3.3.3 incubating in a 5% CO2, 37° C. cell incubator for 18 minutes; • 3.3.4 the 5-fold volume of cell complete medium was added and leaved at room temperature for 5 minutes to terminate the staining reaction; • 3.3.5 the above mixture was centrifuged at 350 g for 5 minutes, and the supernatant was discarded, then the cells were resuspended by adding 10 mL of cell complete medium, counted by cell counter, and cell viability and cell count were recorded; • 3.3.6 the above mixture was centrifuged at 350 g for 5 minutes, and the supernatant was discarded, then the corresponding volume of cell complete medium was added according to the cell counting results, and the density of the resuspended cells was 2×10^6/mL and was to be used. 3.4 Cell Proliferation Stimulation • 3.4.1 50 μL/well prepared cell suspension (1×10^5 cells/well), 50 μL of 4×PHA-M (the final concentration is 5 μg/mL), 50 μL of 4×test compound, 50 μL of cell complete medium were added to the wells of 96-well cell culture plate, and the corresponding control group was set up; (total volume of the reaction system is 200 μL) • 3.4.2 the cell culture plate was placed and incubated in a 5% CO2, 37° C. cell incubator for 48 hours. 3.5 Cell Proliferation Detection • 3.5.1 the above mixture was centrifuged at 350 g for 5 minutes and the supernatant was transferred to a new cell culture plate and stored at −80° C.; • 3.5.2 200 μL of Buffer 2 was add to the wells of the culture plate, and the above mixture was centrifuged at 350 g and the supernatant was discarded; • 3.5.3 cell dead or living staining solution (7-AAD, 1:100 dilution) was prepared with Buffer 2; • 3.5.4 100 μL/well of dead or living staining solution was added, and gently blown and mixed well by pipette, and stained at room temperature for 10 min; • 3.5.5 cell proliferation was detected by flow cytometry analyzer and analyzed by Flowjo software.
In general terms: Flow cytometry measures light scatter and fluorescence of single cells or particles in a stream.

Series [3] in a line: Pharmacokinetic evaluation in mice (IV and PO). The class given is in vivo, female Balb/c mice. Conditions: for MRT last: read-out: MRT0-last. The protocol: Experiment process: 0.04 mg/mL of a clarified solution of the test compound in 5% DMSO/10% Solutol solution/85% water was injected into female Balb/c mice (overnight fasting, 7-9 weeks of age) via tail vein, with dosage of 0.2 mg/kg. 0.1 mg/mL of the test compound in 5% DMSO/10% Solutol solution/0.2% Tween80/84.8% water was administered by gavage to female Balb/c mice (overnight fasting, 7-9 weeks of age), with dosage of 1 mg/kg. About 30 μL of blood was collected from the jugular vein at 0.0833, 0.25, 0.5, 1.0, 2.0, 4.0, 8.0, 10 and 24 h and from the tail vein at 0.25, 0.5, 1.0, 2.0, 4.0, 8.0 and 24 h after administration for both groups of animals, and were placed in anticoagulation tubes with EDTA-K2, and the blood was separated by centrifugation to obtain plasma. Plasma concentrations were detected by LC-MS/MS, and relevant pharmacokinetic parameters were calculated using WinNonlin™ Version 6.3 (Pharsight, Mountain View, CA) pharmacokinetic software with a non-compartmental model linear logarithmic trapezoid method.

The subject of the next series is MDR1 (P-glycoprotein). The series is described as follows: Permeability evaluation on MDR1-MDCK II cell line. Conditions: dog, MDCK-MDR1, pH 7.4.
Where [4] appears, read: female, Balb/c, mouse, plasma, IV 0.2 mg/kg.
The mark [5] stands for this setting: female, Balb/c, mouse, plasma, PO 1 mg/kg.

Where two headings read alike, the source gives them in different places. Where only a bound is given, the exact number is not on record here.

Chain of DHODH enzyme (Q02127 whole entry): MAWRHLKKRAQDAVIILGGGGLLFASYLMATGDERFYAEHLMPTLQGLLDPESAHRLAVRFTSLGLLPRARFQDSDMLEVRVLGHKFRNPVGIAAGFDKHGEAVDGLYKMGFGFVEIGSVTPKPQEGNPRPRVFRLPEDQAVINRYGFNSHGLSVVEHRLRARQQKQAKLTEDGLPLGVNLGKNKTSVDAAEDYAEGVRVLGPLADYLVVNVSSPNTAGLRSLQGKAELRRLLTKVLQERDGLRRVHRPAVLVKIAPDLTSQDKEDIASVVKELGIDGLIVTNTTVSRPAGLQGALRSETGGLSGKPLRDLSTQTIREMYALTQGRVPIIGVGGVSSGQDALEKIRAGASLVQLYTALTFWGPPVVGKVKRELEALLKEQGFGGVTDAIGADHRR

For `CCn1c(CO)nn(-c2cc(O[C@@H](C)C(F)(F)F)c(/C(F)=C/c3cccnc3C(F)F)cc2F)c1=O` [Compound 39], at DHODH enzyme, the half-inhibitory concentration (IC50) (in general, the point on the concentration scale where inhibition reaches its midpoint) stood at 1.3 nM. The EC50 – broadly, the midpoint of the concentration-response curve – in series [1] was 42 nM. In addition, the IC50 in series [2] was determined as 14.4 nM. The same compound yielded a Tlast in series [3] (IV 0.2 mg/kg) of 24.0 h. In series [3] (PO 1 mg/kg), this compound registered an F of 97.4% and a Tlast of 24.0 h. In addition, in series [3] (setting [4]), the total exposure AUC(0-inf) (usually total exposure, with the tail of the curve extrapolated) was found to be 2.24 µM·h; the AUC(0-t) (commonly the area under the concentration-time curve up to a stated or last time point) is 1.84 µM·h; the clearance came to 2.86 mL/min/kg; the half-life (usually the time needed for the level to fall by half in the phase considered) was 10.4 h. Further, the MRT last in series [3] (setting [4]) worked out at 7.83 h. Also, the Vd in series [3] (female, Balb/c, mouse, plasma, IV 0.2 mg/kg, read-out: VdSS) was found to be 2.31 L/kg. Further, in series [3] (setting [5]), the total exposure AUC(0-inf) was 10.6 µM·h; the area under the curve AUC(0-t) worked out at 8.95 µM·h; the time to peak (Tmax) – broadly, the time at which the peak concentration occurs – was 1.5 h; the half-life is 8.86 h. Also, in series [3] (setting [5]), the MRT last was 8.67 h. In series [3] (female, Balb/c, mouse, IV 0.2 mg/kg, plasma), the C0 was found to be 419 nM. In addition, the highest level in series [3] (female, Balb/c, mouse, PO 1 mg/kg, plasma) (Cmax) was 787 nM. Further, in the series with MDR1 (P-glycoprotein), the Papp A→B (in general, the apparent permeability from the apical to the basolateral side of a cell layer) at 150 min, 2 μM amounted to 10.1 ×10⁻⁶ cm/s; the basolateral-to-apical permeability (Papp B→A) (usually how fast a substance crosses the layer from the basolateral side) at 150 min, 2 μM was 13.9 ×10⁻⁶ cm/s; the apparent permeability coefficient (Papp) (as a rule, the rate of passage across a membrane or cell layer, normalised by area and donor concentration) at 150 min, 2 μM was more than 5.5 ×10⁻⁶ cm/s; the efflux ratio (usually the permeability from basolateral to apical divided by that in the opposite direction, in the common usage) at 150 min, 2 μM worked out at 1.37.

Source of the values: patent publication US12606540B2, “Triazolone compound” (MEDSHINE DISCOVERY INC., priority 2020, dated 2026).
